Patent US20250057832A1, “USE OF A CLASS OF 1,4-DIHYDRO-NAPHTHYRIDINE DERIVATIVES IN TREATMENT OF TUMORS” (NEURODAWN PHARMACEUTICAL CO., LTD., priority 2021, published 2025)

Key:
[1] = test system: U87MG-Luc glioblastoma cell in situ transplantation tumor; assay: S2 combined with TMZ in U87MG-Luc glioblastoma in situ transplantation tumor model in nude mice (Example 5); settings: TMZ 3 mg/kg
Description: Before the transplantation, the U87MG-Luc cells were digested with 0.05%-trypsin-EDTA, resuspended with pre-cooled PBS to 4×10^7 cells/mL, and transferred to ice for later use. The nude mice were anesthetized with isoflurane gas, and then fixed on a stereotaxic machine in a prone position. The scalp of the nude mouse was disinfected with iodophor, and incised sagittally with a scalpel. The incision was cleaned with iodophor. The skull was exposed, and drilled with a skull drill extending 1.0 mm in front of the bregma and deviating the right side 2.0 mm. 5 μL of cell suspension (2×10^5 cells) was manually injected with a 10 μL flat-head microsyringe, with inserting the needle to a depth of 3.5 mm, withdrawing the needle 0.5 mm, and injecting for about 10 minutes. […]
On days 7, 14, and 21 after the transplantation, 200 μL of 15 mg/mL D-luciferin potassium salt solution, which was filtered and sterilized through a 0.22 μm filter, was injected intraperitoneally. […] Luorescence intensity was analyzed using Living Image software to obtain fluorescence intensity [p/s], which reflected the size of tumor tissue in the brain of experimental animals.
The survival conditions of experimental animals were monitored, and the animals' death dates were recorded timely.
Quantitative data are expressed as mean±standard error. […]

[2] = test system: human glioma cell line T98G; settings: single drug, maximum drug concentration of 20 M, 6 hours
Description: T98G cells were stably passaged twice. […] The cells were cultured for 24 hours, and added with the compound solution prepared above to each well according to the grouping, such that the compound concentrations in the culture system were 0.1 M, 1 M, 5 μM, and 20 M, respectively. An equal volume of DMSO was added as a control well.
If bright vacuoles with clear border appeared in the observed field of view, and at least one of the following conditions was met: 1) a cell contained at least one vacuole with a diameter greater than 3 μm; 2) a cell contained 3 or more vacuoles with a diameter within the range of 0.5-3 μm; the cell was considered as a methuosis-positive cell.

T98G cells [3] = assay: Vacuolation induction in T98G cells (Example 1); assay type: cell-based, human; settings: for Vacuolation rate (%): 6 hours, mean±SD; for Induction of vacuolation in T98 cells: FIG. 1 and Table 1
Description: T98G cells were stably passaged twice. When the cell density reached more than 85%, the cells were digested with 0.05% trypsin-EDTA for 3 minutes, resuspended with the culture medium, and plated in a 12-well plate at a certain density, with each well system being 1 mL. The cells were cultured for 24 hours, and added with the compound solution prepared above to each well according to the grouping, so that the concentrations of the compounds in the culture system were respectively 5 μM, 10 μM, 20 μM, 40 μM, and 60 μM. An equal volume of DMSO was added as a control well.
After 6 hours of drug treatment, the plates were observed under a microscope with a 20× objective lens, and five fields of view were randomly selected for each well to take photos and record. If in the observed field of view, bright vacuoles with clear border appeared in the cell, and at least one of the following conditions was met: 1) a cell contained at least 1 vacuole with a diameter greater than 3 μm; 2) a cell contained 3 or more vacuoles with a diameter within the range of 0.5-3 μm, the cell was considered to be methuosis-positive cells.
Among them, CELL positive: the number of methuosis-positive cells; CELL normal: the number of cells with normal morphology

T98G cells [4] = assay: Cell proliferation inhibition assay, T98G, CellCounting-Lite 2.0 (Example 1); assay type: cell-based, human; settings: for IC50: Homo sapiens, T98G, 72 hours of drug treatment
Description: T98G cells were stably passaged twice. When the cell density reached above 85%, the cells were digested with 0.05% trypsin-EDTA for 3 minutes, resuspended, plated in a 96-well plate at the corresponding density, and cultured for 24 hours. The cells were treated with drugs at final concentrations of the culture system of 0.41 μM, 1.23 μM, 3.7 μM, 11.1 μM, 33.3 μM, and 100 μM, respectively. After 72 hours of drug treatment, cell viability was determined using CellCounting-Lite™ 2.0 kit. The plate was added with reagents at 100 µL/well according to the CellCounting-Lite™ 2.0 kit instructions, and shaken for 10 minutes. The luminescence value (LUM) as read on a multi-function plate reader, and the relative viability of the cells was calculated.
Relative viability of tumor cells V (%)=(LUM-LUMbackground)/(LUMnormal control−LUMbackground)×100%. LUMbackground was the background reading of the complete culture medium well added with the detection reagent. The half inhibitory concentration (IC50) was calculated using GraphPad Prism 8.0.1 statistical software.

SMILES	Median survival period ([1]; vehicle 30)	Overall survival period ([1]; vehicle 33)	Induction of vacuolated cell phenotype [2]	Rank of vacuolation-inducing activity among the derivatives (T98G cells [3])	Vacuolation rate (%) (T98G cells [3]; 5 μM)	Vacuolation rate (%) (T98G cells [3]; 10 μM)	Vacuolation rate (%) (T98G cells [3]; 20 μM)	Vacuolation rate (%) (T98G cells [3]; 40 μM)	Induction of vacuolation in T98 cells (T98G cells [3])	Proliferation inhibitory activity on T98G (in words) (T98G cells [4]; 72 hours)	IC50 (T98G cells [4])
Cn1nnc2c(C(N)=O)ncn2c1=O [TMZ, Temozolomide]	33.5 days	35 days	–	–	–	–	–	–	–	–	–
Fc1ccc(C(c2ccc(F)cc2)N2CCN(C/C=C/c3ccccc3)CC2)cc1 [flunarizine]	–	–	None of calcium channel inhibitors nifedipine, verapamil, diltiazem, and flunarizine with a maximum drug concentration of 20 M could induce a vacuolated cell phenotype	–	–	–	–	–	–	–	–
CCOC(=O)C1=C(C)Nc2nc3c(c(N)c2C1c1ccccc1)CCCC3 (stereo not drawn) [Compound S1]	–	–	–	weakest vacuolation-inducing activity	0.0%	0.3 ± 0.6%	2.23 ± 0.5%	10.0 ± 5.6%	can induce vacuolation	weak	47.8 µM
C=CCOC(=O)C1=C(C)Nc2nc3c(c(N)c2C1c1cccc(F)c1)CC(C)(C)CC3 (stereo not drawn) [Compound S3]	–	–	–	–	1.1 ± 1.5%	5.34 ± 1.2%	9.04 ± 3.8%	57.4 ± 13.9%	can induce vacuolation	–	7 µM
CC1=C(C(=O)OC(C)C)C(c2cccc(F)c2)c2c(nc3c(c2N)CC(C)(C)CC3)N1 (stereo not drawn) [Compound S6]	–	–	–	–	0.00%	10.5 ± 1.6%	15.3 ± 1.3%	52.3 ± 2.5%	can induce vacuolation	–	20.5 µM
CCOC(=O)C1=C(C)Nc2nc3c(c(N)c2[C@H]1c1ccccc1Cl)CC(C)(C)CC3 [(−)-S2]	–	–	–	–	1.2 ± 1.7%	21.9 ± 9.0%	96.47 ± 2.4%	–	can induce vacuolation	–	9.8 µM
CCOC(=O)C1=C(C)Nc2nc3c(c(N)c2[C@@H]1c1ccccc1Cl)CC(C)(C)CC3 [(+)-S2]	–	–	–	–	1.3 ± 1.6%	10.0 ± 4.2%	69.3 ± 6.9%	–	can induce vacuolation	–	5.3 µM
COc1ccc([C@@H]2Sc3ccccc3N(CCN(C)C)C(=O)[C@@H]2OC(C)=O)cc1 [diltiazem]	–	–	None of calcium channel inhibitors nifedipine, verapamil, diltiazem, and flunarizine with a maximum drug concentration of 20 M could induce a vacuolated cell phenotype	–	–	–	–	–	–	–	–
COCCOC(=O)C1=C(C)Nc2nc3c(c(N)c2C1c1ccccc1Cl)CC(C)(C)CC3 (stereo not drawn) [Compound S5]	–	–	–	–	1.4 ± 1.4%	10.7 ± 0.90%	35.1 ± 1.3%	–	can induce vacuolation	–	4.5 µM
C#CCOC(=O)C1=C(C)Nc2nc3c(c(N)c2C1c1cccc(F)c1)CC(C)(C)CC3 (stereo not drawn) [Compound S4]	–	–	–	–	0.6 ± 1.4%	5.0 ± 1.3%	10.43 ± 1.0%	76.9 ± 12.1%	can induce vacuolation	–	12.7 µM
